Test results from the RepoRT retention time repository (doi:10.1021/acs.analchem.2c02893).

Assay: RP, Thermo Scientific Acclaim RSLC 120 C18, 100 × 2.1 mm, 2.2 µm, 30 °C, 0.2 mL/min, estimated dead time 1.1 min; A: 90% water + 10% methanol + 0.01% formic acid + 5 mM ammonium formate, pH 3.61; B: methanol + 0.01% formic acid + 5 mM ammonium formate, pH 3.61; gradient (min/%B) 0/1 1/1 2/39 13/99.9 15/99.9 15.1/1 20.1/1
Settings: stereoisomer not certain

For `COc1cc(C(=O)c2cnc(N)nc2N)cc(OC)c1OC` [Trimethoprim (Impurity B)], which LC retention time is on record?
The LC retention time was 5.49 min.

For `COc1cc(OC)nc(Oc2cccc(Oc3nc(OC)cc(OC)n3)c2C(=O)O)n1` [Bispyribac], which LC retention time is on record?
The LC retention time was 8.86 min.

Which LC retention time does the source give for `CCOP(=S)(OCC)SCS(=O)(=O)C(C)(C)C` [Terbufos sulfone] here?
Its LC retention time is 9.01 min.

For `CN(C)C(=O)C(c1ccccc1)c1ccccc1` [Diphenamide], which LC retention time is on record?
Its LC retention time is 8.57 min.

Which LC retention time does the source give for `CN1CCN(CCCN2c3ccccc3Sc3ccc(C(F)(F)F)cc32)CC1` [Trifluoperazine] here?
Its LC retention time is 10.2 min.

Which LC retention time does the source give for `Nc1nc2ccc(OC(F)(F)F)cc2s1` [Riluzole] here?
Its LC retention time is 9.12 min.

For `CN(C)CCc1c[nH]c2ccccc12` [DMT (Dimethyltryptamine)], which LC retention time is on record?
Its LC retention time is 3.94 min.

Which LC retention time does the source give for `CC12CCC3C4CCC(=O)C=C4CCC3C1CCC2O` (configuration not stated) [Nandrolone] here?
The LC retention time was 9.37 min.

For `CCOc1cc(NC(C)=O)ccc1C(=O)OC` [Ethopabate], which LC retention time is on record?
Its LC retention time is 6.63 min.

Which LC retention time does the source give for `COc1cc(CNC(=O)CCCCC=CC(C)C)ccc1O` [Capsaicin] here?
Its LC retention time is 9.83 min.

With `COC(=O)Nc1nc2ccc(C(=O)c3ccccc3)cc2[nH]1` [Mebendazole] as the compound, how does the LC retention time read?
Its LC retention time is 8.25 min.

With `CC1=C(C)S(=O)(=O)CCS1(=O)=O` [Dimethipin] as the compound, how does the LC retention time read?
The LC retention time was 3.73 min.

For `Cn1c([N+](=O)[O-])cnc1COC(N)=O` [Ronidazole], which LC retention time is on record?
The LC retention time was 3.55 min.

With `O=S(=O)(Oc1ccc(Cl)cc1)c1ccc(Cl)cc1` [Chlorfenson.Ovex.chlorofenizon.ephirsulfonate.ovatron] as the compound, how does the LC retention time read?
Its LC retention time is 11.1 min.

For `CN(C)c1ccc(N=Nc2ccccc2)cc1` [Butter yellow], which LC retention time is on record?
Its LC retention time is 12.4 min.

For `COc1cc(SC(C)C)c(OC)cc1CCN` [2C-T-4], which LC retention time is on record?
Its LC retention time is 6.69 min.

For `CCCSP(=O)(OCC)SCCC` [Ethoprophos], which LC retention time is on record?
The LC retention time was 10.2 min.

For `CC(=O)OCCC(SC(C)=O)=C(C)N(C=O)Cc1cnc(C)nc1N` [Acetiamine], which LC retention time is on record?
Its LC retention time is 4.46 min.

With `CCCc1nn(C)c2c(=O)[nH]c(-c3cc(C(=O)CN4CCN(C)CC4)ccc3OCC)nc12` [Acetildenafil-Nor] as the compound, how does the LC retention time read?
Its LC retention time is 6.99 min.

For `CCOS(=O)(=O)O` [Ethyl Sulphate (NH4)], which LC retention time is on record?
The LC retention time was 1.58 min.

With `COc1c(C)c2c(c(O)c1CC=C(C)CCC(=O)O)C(=O)OC2` [Mycophenolic acid] as the compound, how does the LC retention time read?
The LC retention time was 8.79 min.

For `CCc1ccc(C(=O)c2cn(CCCCCF)c3ccccc23)c2ccccc12` [EAM-2201], which LC retention time is on record?
Its LC retention time is 12.2 min.

Which LC retention time does the source give for `NC(=S)c1c(Cl)cccc1Cl` [Chlorothiamide] here?
Its LC retention time is 5.69 min.

For `NC(=O)N1c2ccccc2CC(=O)c2ccccc21` [Oxcarbazepine], which LC retention time is on record?
The LC retention time was 6.46 min.

With `CC(C)CNC(=O)N1CCNC1=O` [Isocarbamid (Azolamide)] as the compound, how does the LC retention time read?
The LC retention time was 5.74 min.

With `Nc1cnn(-c2ccccc2)c(=O)c1Cl` [Chloridazone] as the compound, how does the LC retention time read?
The LC retention time was 5.34 min.

With `O=P1(N(CCCl)CCCl)NCCCO1` (configuration not stated) [Cyclophosphamide] as the compound, how does the LC retention time read?
The LC retention time was 6.24 min.

For `COc1cc(CC(C)N)c(OC)cc1Br` (configuration not stated) [DOB], which LC retention time is on record?
The LC retention time was 5.93 min.

Which LC retention time does the source give for `CN1CCC(=C2c3ccccc3CC(=O)c3sccc32)CC1` [Ketotifen] here?
Its LC retention time is 5.54 min.

With `Clc1nc(Cl)nc(Nc2ccccc2Cl)n1` [Anilazine (Dyrene)] as the compound, how does the LC retention time read?
Its LC retention time is 9.74 min.

For `CC(C)(c1ccc(OCC2CO2)cc1)c1ccc(OCC2CO2)cc1` (configuration not stated) [Bisphenol A diglycidyl ether], which LC retention time is on record?
The LC retention time was 10.8 min.

With `CCCN1CC(NS(=O)(=O)N(CC)CC)CC2Cc3c(O)cccc3CC21` (configuration not stated) [Quinagolide] as the compound, how does the LC retention time read?
Its LC retention time is 5.24 min.

For `CC(C)N(C(=O)CCl)c1ccccc1` [Propachlor], which LC retention time is on record?
Its LC retention time is 8.25 min.

With `Cc1nc(N(C)C)nc(OC(=O)N(C)C)c1C` [Pirimicarb] as the compound, how does the LC retention time read?
Its LC retention time is 7.77 min.

With `CC(=O)Oc1ccc(C(c2ccc(OC(C)=O)cc2)c2ccccn2)cc1` [Bisacodyl] as the compound, how does the LC retention time read?
Its LC retention time is 8.92 min.

For `Cc1ccc(C(=O)c2ccc(CC(=O)O)n2C)cc1` [Tolmetin], which LC retention time is on record?
Its LC retention time is 7.89 min.

With `CC(C)(C)NCC(O)COc1ccc(NC(=O)NC2CCCCC2)cc1` (configuration not stated) [Talinolol] as the compound, how does the LC retention time read?
The LC retention time was 6.58 min.
